Measurements reported in patent US10124004B2, “Pyrido[3,4-d]pyrimidine derivative and pharmaceutically acceptable salt thereof” (Teijin Pharma Limited, priority 2015, dated 2018).
pIC50: −log10 of the molar value. Where two headings read alike, the source gives them in different places.

How the values were obtained:
CDK2/cyclin A2 = target: T1, CDK2/cyclin A2 (Homo sapiens, UniProt P24941); assay: Human CDK2/cyclin A2 inhibitory activity (QS S Assist CDK2/Cyclin A2_FP Kit, IMAP fluorescence polarization); format: biochemical
T1 construct: purchased Carna Biosciences, Inc. QS S Assist CDK2/Cyclin A2_FP Kit
Summary of the method: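 Kinase activity read as fluorescence polarization (485/535 nm) after phosphorylated fluorescent substrate binds IMAP reagent (30 min, RT, dark). Enzyme (2.5 ng/well) reacted 60 min at RT with ATP/substrate/metal in HEPES pH 7.4 buffer with Tween 20 and DTT; no-enzyme wells define 0% activity; IC50 by curve fit.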

CDK4/cyclin D3 = target: T2, CDK4/cyclin D3 (Homo sapiens, UniProt P11802); assay: Human CDK4/cyclin D3 inhibitory activity (QS S Assist CDK4/Cyclin D3_FP Kit, IMAP fluorescence polarization); format: biochemical
T2 construct: purchased Carna Biosciences, Inc. QS S Assist CDK4/Cyclin D3_FP Kit
Summary of the method: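 IMAP fluorescence-polarization kinase assay with kit ATP/substrate/metal mix and 12.5 to 25 ng/well enzyme in 20 mM HEPES pH 7.4, 0.01% Tween20, 2 mM DTT. Reaction ran 45 min at room temperature, then binding reagent was added for 30 min in the dark. IC50 was taken from dose-response fits of percent inhibition.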

[1] = Human CDK2/cyclin A2 inhibitory activity, read-out: CDK2 Activity symbol
[2] = Human CDK4/cyclin D3 inhibitory activity, read-out: CDK4 Activity symbol
[3] = 50% inhibitory concentration against CDK2/cyclin A2, given as class symbol
[4] = 50% inhibitory concentration against CDK4/cyclin D3, given as class symbol

T2 sequence (P11802 whole entry): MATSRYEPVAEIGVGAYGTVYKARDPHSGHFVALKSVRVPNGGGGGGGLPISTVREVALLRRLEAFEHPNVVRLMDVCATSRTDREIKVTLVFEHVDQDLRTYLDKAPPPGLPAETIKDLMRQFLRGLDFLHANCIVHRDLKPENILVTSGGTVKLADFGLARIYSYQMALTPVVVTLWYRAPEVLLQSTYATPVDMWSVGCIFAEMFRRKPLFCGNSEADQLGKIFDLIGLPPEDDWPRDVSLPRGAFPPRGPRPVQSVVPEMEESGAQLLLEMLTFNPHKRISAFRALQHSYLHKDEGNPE
T2 sequence (P30281 whole entry partner): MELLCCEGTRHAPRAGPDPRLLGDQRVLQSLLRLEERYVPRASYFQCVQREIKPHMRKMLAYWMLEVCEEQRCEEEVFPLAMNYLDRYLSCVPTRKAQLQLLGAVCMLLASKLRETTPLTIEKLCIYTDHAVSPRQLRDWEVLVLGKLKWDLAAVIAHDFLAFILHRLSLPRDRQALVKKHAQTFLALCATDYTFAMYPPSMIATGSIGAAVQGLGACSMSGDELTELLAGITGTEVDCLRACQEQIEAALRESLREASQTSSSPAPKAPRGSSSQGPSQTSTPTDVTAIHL

Row | Compound | pIC50 (CDK2/cyclin A2; [1]) | pIC50 (CDK4/cyclin D3; [2]) | pIC50 (CDK2/cyclin A2; [3]) | pIC50 (CDK4/cyclin D3; [4])
1 | CC(C)Nc1nc(C(F)F)cc2cnc(Nc3ccc(CN4CCS(=O)(=O)CC4)cn3)nc12 [Compound 113] | ≤ 7.00 | > 8.00 |  | 
2 | CC(C)Nc1nc(C(F)F)cc2cnc(Nc3ccc(CN4CCOCC4=O)cn3)nc12 [Compound 166] | 7.00 to 8.00 | > 8.00 |  | 
3 | CO[C@H](C)c1cc2cnc(Nc3ccc(C(C)N4CCNCC4)cn3)nc2c(NC(C)C)n1 (some centres unmarked) [Compound 266] | ≤ 7.00 | > 8.00 |  | 
4 | C[C@@H](O)c1cc2cnc(Nc3ccc(O[C@H]4CCNC4)cn3)nc2c(N[C@H]2CCCOC2)n1 [Compound 803] |  |  | ≤ 7.00 | > 8.00
5 | CC(C)Nc1nc([C@@H](C)O)cc2cnc(Nc3ccc(N4CCN(CC(C)(C)O)CCC4=O)cn3)nc12 [Compound 643] |  |  | ≤ 7.00 | > 8.00
6 | CN(C)CCOC(=O)N1CCc2nc(Nc3ncc4cc(C5CCOC5)nc(N[C@H]5CCCOC5)c4n3)ccc2C1 (some centres unmarked) [Compound 1136] |  |  | ≤ 7.00 | > 8.00
7 | C[C@@H](O)c1cc2cnc(Nc3ccc(N4CCN(C)CC4)nn3)nc2c(NC(C)(C)CO)n1 [Compound 1101] |  |  | ≤ 7.00 | > 8.00
8 | CC(=O)N1CCN(c2ccc(Nc3ncc4cc([C@@H](C)O)nc(NC(C)C)c4n3)nn2)CC1 [Compound 745] |  |  | ≤ 7.00 | > 8.00
9 | CCNc1nc([C@@H](C)O)cc2cnc(Nc3ccc4c(n3)CCN(C(=O)CO)C4)nc12 [Compound 1117] |  |  | ≤ 7.00 | 7.00 to 8.00
10 | CC(C)CNc1nc([C@@H](C)O)cc2cnc(Nc3ccc(CN4CCC[C@@H](O)C4)cn3)nc12 [Compound 1186] |  |  | ≤ 7.00 | > 8.00
11 | CC(C)Nc1nc(C(F)F)cc2cnc(Nc3ccc(CC(N)=O)cn3)nc12 [Compound 132] | 7.00 to 8.00 | > 8.00 |  | 
12 | CC(C)Nc1nc([C@@H](C)O)cc2cnc(Nc3ccc(C(=O)N4CCNC[C@@H]4C)cn3)nc12 [Compound 1166] |  |  | ≤ 7.00 | > 8.00
13 | Cc1cccc(Nc2ncc3cc(C(F)F)nc(NC(C)C)c3n2)n1 [Compound 104] | ≤ 7.00 | 7.00 to 8.00 |  | 
14 | COCC(C)(C)Nc1nc([C@@H](C)O)cc2cnc(Nc3ccc(C4CCNCC4)cn3)nc12 [Compound 215] | ≤ 7.00 | > 8.00 |  | 
15 | CC(C)Nc1nc([C@@H](C)O)cc2cnc(Nc3ccc(CN4CCC[C@H](O)C4)cn3)nc12 [Compound 1199] |  |  | ≤ 7.00 | > 8.00
16 | C[C@@H](O)c1cc2cnc(Nc3ccc(CN4CCN(CCO)CC4)cn3)nc2c(NC2CC(F)(F)C2)n1 [Compound 1204] |  |  | ≤ 7.00 | > 8.00
17 | CCCCNc1nc([C@@H](C)OC)cc2cnc(Nc3ccc(CN4CCN(CCO)CC4)cn3)nc12 [Compound 853] |  |  | ≤ 7.00 | > 8.00
18 | CCCNc1nc([C@@H](C)O)cc2cnc(Nc3ccc(CN4CCN(CCO)[C@H](C)C4)cn3)nc12 [Compound 1209] |  |  | ≤ 7.00 | > 8.00
19 | CC(C)Nc1nc([C@@H](C)O)cc2cnc(Nc3cc4c(cn3)CNCC4)nc12 [Compound 694] |  |  | ≤ 7.00 | 7.00 to 8.00
20 | CO[C@H](C)c1cc2cnc(Nc3ccc(N4CCNCC4)nn3)nc2c(NCC2CCOC2)n1 (some centres unmarked) [Compound 321] | ≤ 7.00 | > 8.00 |  | 

Row | Compound | pIC50 (CDK2/cyclin A2; [1]) | pIC50 (CDK4/cyclin D3; [2]) | pIC50 (CDK2/cyclin A2; [3]) | pIC50 (CDK4/cyclin D3; [4])
21 | CC(C)Nc1nc(C(F)F)c(Cl)c2cnc(Nc3ccc(N4CCNCC4)cn3)nc12 [Compound 101] | ≤ 7.00 | > 8.00 |  | 
22 | CC(C)Nc1nc([C@@H](C)O)cc2cnc(Nc3ccc(CN4CCN(C[C@H](C)O)CC4)cn3)nc12 [Compound 674] |  |  | ≤ 7.00 | > 8.00
23 | CC(C)Nc1nc(C2CCOC2)cc2cnc(Nc3ccc(CN4CCN(CC#N)CC4)cn3)nc12 (centres unmarked) [Compound 1012] |  |  | ≤ 7.00 | > 8.00
24 | CN(C)CCOc1ccc(Nc2ncc3cc(C(F)F)nc(N[C@H]4CC[C@H](C(=O)O)CC4)c3n2)nc1 [Compound 385] | ≤ 7.00 | > 8.00 |  | 
25 | Cc1nc(Nc2ncc3cc([C@@H](C)O)nc(NC4CCC4)c3n2)ccc1N1CCNCC1=O [Compound 1048] |  |  | ≤ 7.00 | > 8.00
26 | C[C@@H](O)c1cc2cnc(Nc3ccc4c(n3)CCN(C(=O)CO)C4)nc2c(N[C@H]2CC[C@@H](C)CC2)n1 [Compound 653] |  |  | ≤ 7.00 | > 8.00
27 | CC(C)Nc1nc(C(C)O)cc2cnc(Nc3ccc(C4COCCN4)cn3)nc12 (single isomer, unassigned) [Compound 865] |  |  | ≤ 7.00 | > 8.00
28 | CC(C)Nc1nc(C(F)F)cc2cnc(Nc3ccc(CNC(N)=O)cn3)nc12 [Compound 138] | 7.00 to 8.00 | > 8.00 |  | 
29 | CNC(=O)C1CCN(Cc2ccc(Nc3ncc4cc([C@@H](C)O)nc(NC(C)(C)COC)c4n3)nc2)CC1 [Compound 297] | ≤ 7.00 | > 8.00 |  | 
30 | CCCNc1nc([C@@H](C)O)cc2cnc(Nc3ccc(CN4CCN(CCO)C[C@H]4C)cn3)nc12 [Compound 1076] |  |  | ≤ 7.00 | > 8.00
31 | CO[C@H](C)c1cc2cnc(Nc3ccc(N4CC5(CCN5)C4)nn3)nc2c(NC(C)C)n1 [Compound 696] |  |  | ≤ 7.00 | > 8.00
32 | CO[C@H](C)c1cc2cnc(Nc3ccc(OC4CCNCC4)cn3)nc2c(NC(C)C)n1 [Compound 289] | ≤ 7.00 | > 8.00 |  | 
33 | COCC(C)(C)Nc1nc([C@@H](C)O)cc2cnc(Nc3ccc(NCCO)nn3)nc12 [Compound 235] | ≤ 7.00 | 7.00 to 8.00 |  | 
34 | CC(C)Nc1nc([C@@H](C)O)cc2cnc(Nc3ccc(CN4CCNCC4)nn3)nc12 [Compound 1225] |  |  | ≤ 7.00 | > 8.00
35 | CC(C)Nc1nc([C@@H](C)O)c(Cl)c2cnc(Nc3ccc(N4CCN(CCO)CCC4=O)cn3)nc12 [Compound 841] |  |  | ≤ 7.00 | > 8.00
36 | CO[C@H](C)c1cc2cnc(Nc3ccc(CN4CCNCC4)cn3)nc2c(NCC(C)C)n1 [Compound 861] |  |  | ≤ 7.00 | > 8.00
37 | CC(C)Nc1nc([C@@H](C)O)cc2cnc(Nc3ccc(CN4CCN(CCO)CC4)cn3)nc12 [Compound 555] | ≤ 7.00 | > 8.00 |  | 
38 | c1cc(N2CCNCC2)nnc1Nc1ncc2cc(C3CCOC3)nc(N[C@H]3CCCOC3)c2n1 (some centres unmarked) [Compound 878] |  |  | ≤ 7.00 | > 8.00
39 | C[C@@H](O)c1cc2cnc(Nc3ccc(CN4CCC(C(=O)O)CC4)cn3)nc2c(NC(C)(C)C)n1 [Compound 837] |  |  | 7.00 to 8.00 | > 8.00
40 | CC(O)c1cc2cnc(Nc3ccc(N4CCNCC4)cn3)nc2c(NC(C)c2cn[nH]c2)n1 (centres unmarked) [Compound 106] | ≤ 7.00 | > 8.00 |  | 

Row | Compound | pIC50 (CDK2/cyclin A2; [1]) | pIC50 (CDK4/cyclin D3; [2]) | pIC50 (CDK2/cyclin A2; [3]) | pIC50 (CDK4/cyclin D3; [4])
41 | CC(C)Nc1nc(C2CCOC2)cc2cnc(Nc3ccc4c(n3)CCNC4)nc12 (centres unmarked) [Compound 885] |  |  | ≤ 7.00 | > 8.00
42 | CNCCOc1ccc(Nc2ncc3cc([C@@H](C)O)nc(N[C@H]4CCCOC4)c3n2)nc1 [Compound 635] |  |  | ≤ 7.00 | > 8.00
43 | CC(=O)N1CCN(Cc2ccc(Nc3ncc4cc(C(F)F)nc(NC(C)C)c4n3)nc2)CC1 [Compound 117] | ≤ 7.00 | > 8.00 |  | 
44 | C[C@@H](O)c1cc2cnc(Nc3ccc(CN4CCN(CCO)CC4)cn3)nc2c(NC2CCCC2)n1 [Compound 1070] |  |  | ≤ 7.00 | > 8.00
45 | C[C@@H](O)c1cc2cnc(Nc3ccc(CN4CCCC(O)C4)cn3)nc2c(NCC2CCOCC2)n1 (some centres unmarked) [Compound 1087] |  |  | ≤ 7.00 | > 8.00
46 | COCC(C)(C)Nc1nc([C@@H](C)O)cc2cnc(Nc3ccc(C(C)N4CCNCC4)cn3)nc12 (some centres unmarked) [Compound 265] | ≤ 7.00 | > 8.00 |  | 
47 | CO[C@H](C)c1cc2cnc(Nc3ccc(OCCN4CCOCC4)cn3)nc2c(NC(C)C)n1 [Compound 282] | ≤ 7.00 | > 8.00 |  | 
48 | CC(C)Nc1nc([C@@H](C)O)cc2cnc(Nc3ccc(N4CCn5ccnc5C4)nn3)nc12 [Compound 898] |  |  | ≤ 7.00 | > 8.00
49 | CC(C)Nc1nc(C(F)F)cc2cnc(Nc3ccc(CN4CCC(C(C)(C)O)CC4)cn3)nc12 [Compound 118] | 7.00 to 8.00 | > 8.00 |  | 
50 | CCNc1nc([C@@H](C)O)cc2cnc(Nc3ccc(CN4CCN(C[C@@H](C)O)CC4)cn3)nc12 [Compound 977] |  |  | ≤ 7.00 | > 8.00
51 | CC(C)Nc1nc([C@@H](C)O)c(Cl)c2cnc(Nc3ccc(N4CCCNCC4=O)cn3)nc12 [Compound 750] |  |  | ≤ 7.00 | > 8.00
52 | CCCNc1nc([C@@H](C)O)cc2cnc(Nc3ccc(N4CCC(N(C)C)CC4)nn3)nc12 [Compound 1159] |  |  | ≤ 7.00 | > 8.00
53 | CC(C)Nc1nc([C@@H](C)O)cc2cnc(Nc3ccc(CN4CCNC5(CC5)C4)cn3)nc12 [Compound 537] | ≤ 7.00 | > 8.00 |  | 
54 | CC(=O)NCCCc1ccc(Nc2ncc3cc(C(F)F)nc(NC(C)C)c3n2)nc1 [Compound 152] | 7.00 to 8.00 | > 8.00 |  | 
55 | CC(C)Nc1nc(C(F)F)cc2cnc(Nc3ccc(-c4ccncc4)cn3)nc12 [Compound 100] | ≤ 7.00 | 7.00 to 8.00 |  | 
56 | CC1(c2cc3cnc(Nc4ccc5c(n4)CCN(C(=O)CO)C5)nc3c(N[C@H]3CC[C@H](O)CC3)n2)COC1 [Compound 1146] |  |  | ≤ 7.00 | > 8.00
57 | Cc1nc(Nc2ncc3cc(C4CCOC4)nc(NC(C)C)c3n2)ccc1N1CCNCC1=O (centres unmarked) [Compound 824] |  |  | ≤ 7.00 | > 8.00
58 | O=C1CNCCN1c1ccc(Nc2ncc3cc(C(F)F)nc(NCC4CCOCC4)c3n2)nc1 [Compound 823] |  |  | ≤ 7.00 | 7.00 to 8.00
